Test results as given in PubChem BioAssay AID743183 (Broad Institute, 2013).
Records with an inconclusive call do not appear. Calls of active or inactive are those of the source. The rule behind the calls is not given here.

Tested on: not listed separately
Assay: inhibitors of non-replicating M. tuberculosis, dose response, luciferase, dry powder (AID 743183)
Details: non-replicating M. tuberculosis, luciferase reporter luminescence; at 38 µM (top of the series)
With `Cc1ccc(C)c(-c2csc(NC(=O)c3cnccn3)n2)c1` the activity change, negative = inhibition was -66.6% (inactive). For `O=C(OCc1ccc(Cl)c(Cl)c1)c1ccccn1`, the activity change, negative = inhibition was -46.6% (inactive). For `CCOC(=O)CNC(=O)N1c2ccccc2Sc2ccccc21`, the activity change, negative = inhibition was -75.4% (inactive). In the case of `N#Cc1nc(-c2cccs2)oc1NCCc1ccccc1`, the activity change, negative = inhibition was -87.4% (inactive).

Tested on: non-replicating M. tuberculosis, luciferase reporter luminescence
Assay: as above
Details: not given
`Cc1cccc(C)c1N1C(=O)CC(N2CCSCC2)C1=O` (configuration not stated) gave an AC90 of 4.7 µM. `O=C(CCN1CCC(c2cccs2)=N1)c1cccs1` gave an AC90 of 14.3 µM. `NC1CCN(c2c(F)cc3c(=O)c(C(=O)O)cn(C4CC4)c3c2Cl)C1` (configuration not stated) showed an AC90 of 2.04 µM. `CCOC(=O)c1cc(-c2csc(COc3ccccc3Cl)n2)on1` gave an AC90 of 4.52 µM. In the case of `O=C(CCc1ccccc1)NC1C2CC3CC(C2)CC1C3` (configuration not stated), the AC90 was 10.3 µM. `COC(=O)COc1cccc(NC(=O)c2ccc(Cl)cc2)c1` showed an AC90 of 11.7 µM. Compound `CCOC(=O)COc1ccc2c(=O)cc(-c3ccccc3)oc2c1` has an AC90 of 2.9 µM. With `CCOCCOC(=O)COc1ccc2c(-c3ccccc3)cc(=O)oc2c1` the AC90 was 8.82 µM. `C=CCn1c(NC(=O)c2ccccc2)nc2ccccc21` showed an AC90 of 7.69 µM. In the case of `Cc1cc(C)n2nc(S(=O)(=O)Nc3c(Cl)cccc3Cl)nc2n1`, the AC90 was 5.45 µM. `CCc1ccc(OCCCC(=O)NCc2ccco2)cc1` showed an AC90 of 31.8 µM. With `CCOC(=O)COc1ccc(C(=O)NC2CCCCC2)cc1` the AC90 was 8.93 µM. With `O=C(COc1c(Br)cc(Br)c2cccnc12)N1CCCCC1` the AC90 was 7.78 µM. Work on `Clc1cccc(-c2ccc(CNCc3ccccn3)o2)c1` yielded an AC90 of 16.3 µM. `CCOC(=O)c1cc(-c2csc(COc3ccccc3)n2)on1` gave an AC90 of 6.95 µM. In the case of `NC(=O)C1(N2CCCCC2)CCN(C2CC(=O)N(CCc3ccccc3)C2=O)CC1` (configuration not stated), the AC90 was 22.3 µM. Work on `c1ccc(Nc2nc(-c3ccccn3)cs2)cc1` yielded an AC90 of 1.95 µM. With `Clc1cccc(CNCCNCc2cccc(Cl)c2)c1` the AC90 was 19.4 µM. `O=C(Nc1nc2ccccc2[nH]1)c1cccc(Cl)c1` showed an AC90 of 4.96 µM. `Cc1cccc(Cn2ccc(NC(=O)c3ccc4c(c3)OCO4)n2)c1` gave an AC90 of 9.73 µM. With `O=C(NCc1cccs1)c1ccc(Br)o1` the AC90 was 5.8 µM. `CS(=O)(=O)Cc1nc2ccccc2oc1=O` showed an AC90 of 38.6 µM. For `Cc1cc(NC(=O)C2CCCCC2)n(-c2nc3ccccc3[nH]2)n1`, the AC90 was 12.9 µM. Work on `CCCOC(=O)c1ccc(NC(=O)c2ccc(Br)o2)cc1` yielded an AC90 of 7.14 µM. Work on `Cc1nnc(NC(=O)c2ccc3ccccc3c2)o1` yielded an AC90 of 0.372 µM. For `CCOC(=O)COc1ccc2c(c1)C(=O)CC1(CCCCC1)O2`, the AC90 was 5.77 µM. `O=C(COc1cccc2ccccc12)Nc1nc2ccccc2[nH]1` showed an AC90 of 6.61 µM. Work on `O=C(NC1CC2CCC1C2)C1COc2ccccc2O1` (configuration not stated) yielded an AC90 of 1.39 µM. In the case of `CCOC(=O)COc1ccc2c(=O)c(-c3ccccc3)coc2c1`, the AC90 was 3.65 µM. `COC(=O)COc1ccc2c(=O)c(Oc3ccccc3)c(C)oc2c1` showed an AC90 of 2.94 µM. In the case of `Fc1ccc(-c2ccc(CNCc3ccccn3)o2)cc1Cl`, the AC90 was 13.7 µM. For `Brc1c(-c2ccc3c(c2)OCO3)nc2ncccn12`, the AC90 was 12.9 µM. In the case of `CCCCN(C/C=C/c1ccccc1OC)Cc1ccccc1`, the AC90 was 24.6 µM.
